The numbers were not newly measured in patent US10227355B2, “Quinoline derivatives and preparation thereof” (COUNCIL OF SCIENTIFIC AND INDUSTRIAL RESEARCH, priority 2015, dated 2019), which cites them from elsewhere.

For the data set, the system named is Plasmodium cynomolgi B. Conditions: intramuscularly, 7 daily doses of 15 mg/kg; observation period of 120 d; rhesus monkeys.

For `CCCCCCCCCCOc1cc2c(OC(C)=O)c(C(=O)OC)cnc2cc1OC(C)C` [WR 194905, 4-acetoxy-6-decyloxy-7-isopropoxy-3-methoxycarbonylquinoline], the “anti-relapse (curative) activity” value is on record as “curative”.

`CCCCc1cc2c(O)c(C(=O)OC)cnc2cc1OCCOc1ccccc1` [WR 197236, 6-butyl-4-hydroxy-3-methoxycarbonyl-7-β-phenoxyethoxyquinoline]: the “anti-relapse (curative) activity” value is “curative”.
